Results published in ChEMBL document CHEMBL3885861, “Open TG-GATES”.

Organism: Rattus norvegicus
Experiment: Open TG-GATES - Regimen: Single
Assay type: toxicity, organism-based, Sprague-Dawley
Set-up: regimen Single, gender Male, age 6 weeks
Details: in vivo, po, 30 mg/kg, route gavage, dose level Low; for APTT / Bas / Eos / Fbg / Hb / Ht / Lym / MCH / MCHC / MCV / Mono / Neu / PT / Plat / RBC / Ret / WBC: tissue Blood; for KIDNEY_L / KIDNEY_R / KIDNEY_TOTAL: tissue Kidney; for LIVER: tissue Liver; for A/G / ALP / ALT / AST / BUN / CRE / Ca / Cl / DBIL / GLC / IP / K / LDH / Na / PL / RALB / TBIL / TC / TG / TP / gamma-GTP: tissue Plasma

## Nc1ccc(Cc2ccc(N)cc2)cc1
3 h
  TERMINAL_BW: 209.5 g
  APTT: 14.3 s
  Bas: 0%
  Eos: 0.6%
  Fbg: 262.8 mg/dL
  Hb: 13 g/dL
  Ht: 38%
  Lym: 74.2%
  MCH: 21 pg
  MCHC: 34.1%
  MCV: 61.4 fL
  Mono: 3.6%
  Neu: 20.8%
  PT: 12 s
  Plat: 147.2 x10_4/uL
  RBC: 619 x10_4/ul
  Ret: 7.8%
  WBC: 100.2 x10_2/uL
  KIDNEY_L: 0.9 g
  KIDNEY_R: 0.9 g
  KIDNEY_TOTAL: 1.8 g
  LIVER: 8.8 g
  A/G: 0.8
  ALP: 1545.4 IU/L
  ALT: 47.4 IU/L
  AST: 81.6 IU/L
  BUN: 11 mg/dL
  CRE: 0.2 mg/dL
  Ca: 10.9 mg/dL
  Cl: 105 meq/L
  DBIL: 0.022 mg/dL
  GLC: 172 mg/dL
  IP: 9.1 mg/dL
  K: 3.8 meq/L
  LDH: 65.4 IU/L
  Na: 141.2 meq/L
  PL: 138.6 mg/dL
  RALB: 2.6 g/dL
  TBIL: 0.062 mg/dL
  TC: 73 mg/dL
  TG: 79.4 mg/dL
  TP: 5.6 g/dL
  gamma-GTP: 1.4 IU/L
6 h
  TERMINAL_BW: 206.3 g
  APTT: 14.7 s
  Bas: 0%
  Eos: 0.6%
  Fbg: 274.6 mg/dL
  Hb: 13.2 g/dL
  Ht: 38.9%
  Lym: 70.8%
  MCH: 21.3 pg
  MCHC: 34%
  MCV: 62.7 fL
  Mono: 2.2%
  Neu: 25.2%
  PT: 11.5 s
  Plat: 141.7 x10_4/uL
  RBC: 621.2 x10_4/ul
  Ret: 8.2%
  WBC: 77.7 x10_2/uL
  KIDNEY_L: 0.9 g
  KIDNEY_R: 0.9 g
  KIDNEY_TOTAL: 1.8 g
  LIVER: 8.6 g
  A/G: 0.8
  ALP: 1547 IU/L
  ALT: 37.2 IU/L
  AST: 74.2 IU/L
  BUN: 7.4 mg/dL
  CRE: 0.2 mg/dL
  Ca: 10.7 mg/dL
  Cl: 107.2 meq/L
  DBIL: 0.022 mg/dL
  GLC: 167 mg/dL
  IP: 9.6 mg/dL
  K: 4 meq/L
  LDH: 52.4 IU/L
  Na: 141.8 meq/L
  PL: 146.2 mg/dL
  RALB: 2.5 g/dL
  TBIL: 0.074 mg/dL
  TC: 81 mg/dL
  TG: 61.2 mg/dL
  TP: 5.6 g/dL
  gamma-GTP: 1.2 IU/L
9 h
  TERMINAL_BW: 205 g
  APTT: 13.5 s
  Bas: 0%
  Eos: 0.8%
  Fbg: 260 mg/dL
  Hb: 12.8 g/dL
  Ht: 37.2%
  Lym: 74%
  MCH: 21.3 pg
  MCHC: 34.2%
  MCV: 62.1 fL
  Mono: 2.4%
  Neu: 22%
  PT: 11.8 s
  Plat: 138.8 x10_4/uL
  RBC: 600 x10_4/ul
  Ret: 8.6%
  WBC: 106 x10_2/uL
  KIDNEY_L: 0.9 g
  KIDNEY_R: 0.9 g
  KIDNEY_TOTAL: 1.8 g
  LIVER: 7.6 g
  A/G: 0.8
  ALP: 1400.6 IU/L
  ALT: 34.4 IU/L
  AST: 75.4 IU/L
  BUN: 8.8 mg/dL
  CRE: 0.2 mg/dL
  Ca: 10.5 mg/dL
  Cl: 106.8 meq/L
  DBIL: 0.03 mg/dL
  GLC: 167.6 mg/dL
  IP: 11.3 mg/dL
  K: 4.1 meq/L
  LDH: 53.8 IU/L
  Na: 143.4 meq/L
  PL: 134.6 mg/dL
  RALB: 2.5 g/dL
  TBIL: 0.094 mg/dL
  TC: 76 mg/dL
  TG: 50.2 mg/dL
  TP: 5.4 g/dL
  gamma-GTP: 1.6 IU/L
24 h
  TERMINAL_BW: 219.9 g
  APTT: 13.8 s
  Bas: 0%
  Eos: 1%
  Fbg: 278.6 mg/dL
  Hb: 13.4 g/dL
  Ht: 38.6%
  Lym: 72.2%
  MCH: 20.9 pg
  MCHC: 34.7%
  MCV: 60.2 fL
  Mono: 2.6%
  Neu: 23.6%
  PT: 11.6 s
  Plat: 137.1 x10_4/uL
  RBC: 640.4 x10_4/ul
  Ret: 6.5%
  WBC: 93 x10_2/uL
  KIDNEY_L: 0.9 g
  KIDNEY_R: 1 g
  KIDNEY_TOTAL: 1.9 g
  LIVER: 10.1 g
  A/G: 0.9
  ALP: 1877.6 IU/L
  ALT: 44 IU/L
  AST: 82 IU/L
  BUN: 14.8 mg/dL
  CRE: 0.2 mg/dL
  Ca: 11.1 mg/dL
  Cl: 105.6 meq/L
  DBIL: 0.02 mg/dL
  GLC: 168.4 mg/dL
  IP: 8 mg/dL
  K: 4 meq/L
  LDH: 53.6 IU/L
  Na: 143.4 meq/L
  PL: 160.2 mg/dL
  RALB: 2.7 g/dL
  TBIL: 0.046 mg/dL
  TC: 92.8 mg/dL
  TG: 91.6 mg/dL
  TP: 5.7 g/dL
  gamma-GTP: 1 IU/L
